Data as given in PubChem BioAssay (NCI).
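1) Cells in 96-well plates. 2) Compound, 48 h, 5 concentrations. 3) Linear interpolation between surrounding doses. 4) Unreached endpoint = highest concentration. GI50 marks 50% less growth. TGI: total growth inhibition.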

What was measured:
Test in all cases: inhibition of tumour cell growth, NCI panel, 48 h
A498 renal = test system: A498 renal
CCRF-CEM leukemia = test system: CCRF-CEM leukemia
HCT-116 colon = test system: HCT-116 colon
HCT-15 colon = test system: HCT-15 colon
HL-60(TB) leukemia = test system: HL-60(TB) leukemia
NCI-H23 lung = test system: NCI-H23 lung
OVCAR-3 ovarian = test system: OVCAR-3 ovarian
SF-539 CNS = test system: SF-539 CNS
UO-31 renal = test system: UO-31 renal

| SMILES | GI50 (A498 renal) [µM] | TGI (A498 renal) [µM] | GI50 (CCRF-CEM leukemia) [µM] | TGI (CCRF-CEM leukemia) [µM] | GI50 (HCT-116 colon) [µM] | TGI (HCT-116 colon) [µM] | GI50 (HCT-15 colon) [µM] | TGI (HCT-15 colon) [µM] | GI50 (HL-60(TB) leukemia) [µM] | TGI (HL-60(TB) leukemia) [µM] | GI50 (NCI-H23 lung) [µM] | TGI (NCI-H23 lung) [µM] | GI50 (OVCAR-3 ovarian) [µM] | TGI (OVCAR-3 ovarian) [µM] | GI50 (SF-539 CNS) [µM] | TGI (SF-539 CNS) [µM] | GI50 (UO-31 renal) [µM] | TGI (UO-31 renal) [µM] |
| --- | --- | --- | --- | --- | --- | --- | --- | --- | --- | --- | --- | --- | --- | --- | --- | --- | --- | --- |
| Cn1cc(C2=C(c3cn(CCN)c4ccccc34)C(=O)NC2=O)c2ccccc21 | 7.79 | 17.6 | 6.05 | > 22.7 | 5.57 | > 25 | 6.79 | > 25 | 6.55 | 14.9 | 5.15 | 15.1 | 7.47 | > 23.9 | 4.83 | 13.9 | 3.7 | 20.6 |
| CCCCCCCC[N+](C)(CCCCCCCC)CCCCCCCC | 0.563 | 1.54 | 0.189 | 0.525 | 0.272 | 1.24 | 0.715 | 2.1 | 0.14 | 0.366 | 0.267 | 1.13 | 0.267 | 0.792 | 0.513 | 1.66 | 0.465 | 1.62 |
| NCCC(O)(P(=O)(O)O)P(=O)(O)O | > 100 | > 100 | > 100 | > 100 | > 100 | > 100 | > 100 | > 100 | > 100 | > 100 | > 100 | > 100 | > 100 | > 100 | > 100 | > 100 | > 100 | > 100 |
| CSc1nc2sc3cc(Cl)ccc3n2c(=N)c1C#N | 29.6 | > 100 |  | > 100 | > 25.7 | > 100 | > 100 | > 100 | 7.71 | > 100 | > 52 | > 100 | 11.8 | > 100 | 15.2 | > 100 | > 76.2 | > 100 |
| NCCNC(=S)S |  | > 100 |  | 90.6 |  | > 100 |  | > 100 |  | > 100 |  | > 100 |  | > 100 |  |  |  | > 100 |
| CC(=O)N=c1ccc2nc3c(cc(N)c4ccccc43)oc-2c1 | 1.92 | 6.87 | 0.7 | 5.65 | 0.323 | 1.24 | 0.935 | 2.5 | 0.279 | 6.8 | 1.27 | 4.25 | 0.207 | 0.684 | 1.63 | 3.05 | 1.03 | 2.46 |
| CCOC(=O)c1sc(Nc2ccc(Cl)cc2)nc1C | 1.79 | 5.44 | 2.64 | 9.37 |  |  | 1.62 | 3.92 | 3.16 | 7.17 | 1.5 | 3.56 | 1.69 | 3.92 | 1.66 | 3.72 | 1.15 | 2.5 |
